Results on 1 compound are retold here after article PMC10002220, “In Vivo Reversal of P-Glycoprotein-Mediated Drug Resistance in a Breast Cancer Xenograft and in Leukemia Models Using a Novel, Potent, and Nontoxic Epicatechin EC31” (International Journal of Molecular Sciences, 2023).

The term IC50 denotes the concentration at which inhibition is half-maximal. One may read the AUC(0-t) as the area under the concentration-time curve up to a stated or last time point. As a reminder, the Cmax is the highest concentration seen after dosing. As a reminder, the Tmax is the time from dosing to the highest level. The half-life is the time needed for the level to fall by half in the phase considered.

One data set concerns fibroblast cells. Also on record: method as in PMID 25985195, PMID 34597896. As to conditions: cited from earlier work.
Data set [1] is described as follows: In vivo toxicity study of EC31 alone and combined with PTX. As to conditions: q2d x 12. How it is done: (§1) (A) In vivo toxicity study of EC31 alone and of its combination with PTX was conducted. BALB/c mice were randomized into five groups with five mice in each group. Body weight of BALB/c mice during treatments was measured every two days. The treatment groups included (1) solvent control (5% NMP + 5% Cremophor EL + 90% PBS to dissolve EC31 and 5% Ethanol + 5% Cremophor EL + 90% PBS to dissolve PTX), (2) PTX (12 mg/kg i.v.), (3) EC31 (30 mg/kg i.p.), (4) EC31 (30 mg/kg i.p.) + PTX (12 mg/kg i.v.), or (5) EC31 (60 mg/kg i.p.) + PTX (12 mg/kg i.v.). The administration was performed every other day 12 times (q2d x 12). The loss of body weight or appetite and treatment-related mortality were monitored and defined as toxicity. (B) BALB/c nude mice were subcutaneously xenografted with LCC6MDR. When the tumor reached 150–300 mm^3, the mice were randomized and administered once with (1) EC31 alone, (2) PTX alone, or (3) EC31 + PTX. […] The tumors were taken out, and their weights were measured. Intratumor concentration of EC31 or PTX was measured using UPLC-MS/MS, and the actual concentration of PTX or EC31 was normalized to the tumor weight. […] Tumor volume and body weight were monitored throughout the treatment period. […] The tumor volume, tumor weight, and doubling time were measured. The number of animal deaths was recorded during the treatment period. […]

For a further data set, the system named is K562 cells. The data set can be described thus: EC31 efflux in K562 cells. To be noted: after 150 min of efflux, preincubated with 1 µM. Format: cell-based, human. As for the experimental part:
N = 3 independent experiments.
After incubation, the medium was removed, and cells were washed with cold PBS twice. To the cell pellet, 300 μL of acetonitrile was added. The cells were sonicated for 10 min at 50 Hz using Intertek-CD-3800(A) sonicator. The lysed cells were then spun at 14,000 rpm for 10 min at room temperature. The supernatant containing EC31 was saved and was filtered with 0.45 µm syringe filter before UPLC-MS/MS analysis. For the efflux assay, the cells were preincubated with 1 μM EC31 at 37 °C for 2.5 h. The cells were then washed with PBS, were resuspended in drug-free medium, and were further incubated at 37 °C. The cells were collected at 0, 30, 60, and 150 min, respectively. The intracellular EC31 at different time points was analyzed as described in the Section 4.9.

A further data set deals with P-gp (Homo sapiens, UniProt P08183). The data set can be described thus: Vanadate-sensitive P-gp ATPase activity assay (P-gp-Glo). To be noted: 70 µM.
In another data set the test system is LCC6MDR xenograft. In words: In vivo PTX and EC31 accumulation in LCC6MDR tumor. As for the experimental part:
as §1

Data set [2] in a line: Pharmacokinetics of methylated catechin derivatives in plasma. The data set is classed as in vivo, BALB/c mice. As to conditions: BALB/c, mouse; for AUC(0-inf): read-out: AUC0-infinity (converted). As for the experimental part:
Figure 4 Pharmacokinetics of methylated catechin derivatives and their effects on the PK of PTX. BALB/c mice were i.v. injected with 10 mg/kg or i.p. injected with 30 mg/kg of modulators. At 10, 30, 60, 180, 420, 840, and 1080 min postadministration, animals were sacrificed to collect their blood, and then the plasma concentration of modulator was determined using UPLC-MS/MS. The % of bioavailability of each modulator injected through i.p. injection route was calculated by comparing it to its plasma level when injected via i.v. injection. […] (E) Pharmacokinetic (PK) profiles of 4 potent methylated catechin derivatives were summarized. (F) The effect of modulators (GC51, EC31, or C25) on the PK of PTX was firstly determined through i.p. injection of modulator at 30 mg/kg 1 h prior to i.v. injection of 12 mg/kg PTX. At 10, 30, 60, 120, 240, and 420 min postadministration of PTX, animals were sacrificed. Plasma level of PTX was quantified through LC/MSMS. The dashed line indicates the corresponding EC50 of modulator in vitro for reversing PTX resistance. […] There were 3 mice at each time point. All pharmacokinetic parameters were calculated with the pharmacokinetic software Summit® PK solution. Two-tailed test was conducted for the AUC value of PTX alone and cotreatment. […] N.S. = not significant. / = not applicable.
In group 1, BALB/c mice were injected intravenously (i.v.) with 10 mg/kg of modulator, and their blood was collected at 10, 30, 60, 120, 240, and 480 min postadministration. In group 2, BALB/c mice were injected intraperitoneally (i.p.) with 30 mg/kg of modulator, and their blood was collected at 10, 30, 60, 180, 420, 840, and 1080 min postadministration.
The pharmacokinetics of PTX was studied with or without the coadministered modulator. PTX (12 mg/kg i.v.) alone was injected into the BALB/c mice. For the combination study, modulator (30 mg/kg i.p.) was injected 1 h before injecting PTX (12 mg/kg i.v.). The blood was collected at 10, 30, 60, 120, 240, and 420 min after PTX administration. Blood samples were spun at 14,000 rpm for 10 min at 4 °C to collect plasma supernatant. Plasma concentration of methylated catechin derivatives or PTX was determined through UPLC-QQQ-MS as described in Section 4.9. Pharmacokinetic parameters were analyzed with PK Solutions 2.0 (Summit Research Service, Ashland, OH, USA).

Read-outs that look alike come from different tables or passages of the source.

Sequence of P-gp (P08183 whole entry): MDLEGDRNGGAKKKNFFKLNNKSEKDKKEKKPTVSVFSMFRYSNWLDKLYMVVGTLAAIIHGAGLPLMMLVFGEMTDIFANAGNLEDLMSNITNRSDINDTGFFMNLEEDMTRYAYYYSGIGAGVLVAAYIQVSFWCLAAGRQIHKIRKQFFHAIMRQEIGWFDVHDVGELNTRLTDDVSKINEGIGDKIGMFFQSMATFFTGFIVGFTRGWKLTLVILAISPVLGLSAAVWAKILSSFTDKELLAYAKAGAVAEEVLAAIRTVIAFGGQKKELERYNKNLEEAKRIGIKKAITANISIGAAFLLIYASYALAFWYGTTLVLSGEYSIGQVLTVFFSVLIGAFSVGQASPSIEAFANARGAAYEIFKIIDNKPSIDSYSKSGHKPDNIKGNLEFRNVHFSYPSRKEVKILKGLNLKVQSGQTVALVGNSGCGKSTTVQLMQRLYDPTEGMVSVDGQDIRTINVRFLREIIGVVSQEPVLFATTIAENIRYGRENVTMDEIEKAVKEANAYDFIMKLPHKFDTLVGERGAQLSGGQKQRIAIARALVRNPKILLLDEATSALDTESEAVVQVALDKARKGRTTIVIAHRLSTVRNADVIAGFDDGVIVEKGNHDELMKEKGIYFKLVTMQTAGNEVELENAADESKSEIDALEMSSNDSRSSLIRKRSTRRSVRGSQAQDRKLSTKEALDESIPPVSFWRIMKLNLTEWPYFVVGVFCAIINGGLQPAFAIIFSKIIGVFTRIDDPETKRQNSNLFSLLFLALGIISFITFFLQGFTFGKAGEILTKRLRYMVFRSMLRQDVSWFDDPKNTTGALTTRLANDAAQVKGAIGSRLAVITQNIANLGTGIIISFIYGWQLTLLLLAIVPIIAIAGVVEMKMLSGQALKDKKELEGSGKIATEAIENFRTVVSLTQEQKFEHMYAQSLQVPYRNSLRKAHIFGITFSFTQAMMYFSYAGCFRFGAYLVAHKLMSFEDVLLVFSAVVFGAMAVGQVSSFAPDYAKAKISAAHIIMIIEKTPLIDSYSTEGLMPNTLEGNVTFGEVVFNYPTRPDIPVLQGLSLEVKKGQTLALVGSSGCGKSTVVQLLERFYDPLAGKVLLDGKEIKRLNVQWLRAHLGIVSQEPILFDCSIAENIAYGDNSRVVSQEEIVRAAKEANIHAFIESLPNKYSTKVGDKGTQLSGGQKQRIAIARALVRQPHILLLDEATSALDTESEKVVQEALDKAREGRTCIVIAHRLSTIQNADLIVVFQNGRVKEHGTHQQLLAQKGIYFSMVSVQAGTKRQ
Procedure for P-gp: (A) Effect of EC31 on vanadate-sensitive P-gp ATPase was studied. EC31, C25, and EGCG at different concentrations (10, 50, and 70 µM) were incubated with recombinant human P-gp microsomes and MgATP with or without sodium vanadate. After stopping the reaction, the remaining ATP level was determined by measuring the luciferase-generated luminescent signal. Vanadate-inhibitable P-gp ATPase activity was determined by calculating the luminescence signal in the samples with or without sodium vanadate. […] P-gp ATPase activity caused by compounds was normalized to basal P-gp ATPase activity (human P-gp microsome treated with DMSO) and was presented as fold change. A dashed line at 1.0-fold change represented the basal P-gp ATPase activity. […] The values in this figure were presented as mean ± standard error of mean. N = 3 independent experiments.
P-gp ATPase activity was measured with P-gp-Glo assay system (Promega, #V3601) with human P-gp membrane vesicles as reported previously [32]. […] The reaction was initiated by adding MgATP and was then incubated at 37 °C for 1 h. […] The remaining ATP signal of luminescence was measured with a Clariostar microplate reader (BMG Labtech, Ortenberg, Germany). Vanadate-inhibitable P-gp ATPase activity was determined by calculating the luminescence signal in the samples with or without sodium vanadate.

Regarding `COc1cc(OC)c2c(c1)O[C@H](c1ccc(OC)c(OC)c1)[C@H](OC(=O)c1ccc(F)c(NC(=O)c3cc(OC)c(OC)c(OC)c3)c1)C2` [EC31], in the data set with fibroblast cells, the IC50 was above 100 µM. Further, the “mortality or toxicity symptoms” value in data set [1] (EC31 30 mg/kg i.p. alone) is reported as “did not cause any mortality or toxicity symptoms”. Also, the body weight loss in data set [1] (EC31 30 or 60 mg/kg i.p. + PTX 12 mg/kg i.v.) is given as at most 15%. Also, in the data set on K562 cells, the “EC31 remaining in cells” value was “about 23%”. In addition, at P-gp, the “P-gp ATPase activity, fold change relative to basal” value is recorded as at most 2.1 fold. Further, the “increase of intratumor PTX level compared to PTX alone” value in the data set on LCC6MDR xenograft (EC31 30 mg/kg i.p. + PTX 12 mg/kg i.v., at 180 min) stood at 6 fold. Further, in the data set with LCC6MDR xenograft (EC31 alone 30 mg/kg i.p., LCC6MDR xenograft), the “time intratumor EC31 is maintained above its in vitro EC50 (94 nM)” value was determined as 420 min. Moreover, in data set [2] (ip, 30 mg/kg), the exposure AUC(0-t) is 17800 ng·h/mL, the highest concentration (Cmax) is 5610 ng/mL, the Tmax is 1 h and the half-life stood at 3.33 h. Besides, the AUC(0-inf) in data set [2] (ip, 30 mg/kg) is 18400 ng·h/mL. Also, in data set [2] (iv, 10 mg/kg), the area under the curve AUC(0-t) was 7240 ng·h/mL, the half-life came to 0.912 h and the AUC(0-inf) is 7290 ng·h/mL.
